The record followed here is publication PMC7079008, “Compactness of Protein Folds Alters Disulfide‐Bond Reducibility by Three Orders of Magnitude: A Comprehensive Kinetic Case Study on the Reduction of Differently Sized Tryptophan Cage Model Proteins” (Chembiochem, 2019).

The nature of this data set: TCEP stability in phosphate buffer by 31P NMR. The format is physicochemical. Conditions: 50 mM phosphate buffer, room temperature, over 14 days. The protocol: Due to the acidic nature of TCEP, to avoid any pH shift, a phosphate buffer (50 mM, pH 7) was used to sustain near‐physiological pH. The groups of Han39 and Whitesides37 described the chemical instability of TCEP above pH 7 in 300–400 mM phosphate buffer.
NMR spectroscopy: All ^1H NMR spectroscopy experiments were performed on a Bruker Avance III 700 MHz spectrometer equipped with a z‐gradient 5 mm probe head operating at 700.13 MHz for ^1H, whereas ^31P NMR spectroscopy experiments were performed on a Bruker Avance 250 spectrometer with a 5 mm SB quad probe head.

`O=C(O)CCP(CCC(=O)O)CCC(=O)O` [TCEP, tris(2‐carboxyethyl)phosphine]: the “TCEP oxidation or degradation” value was “no significant spectral changes”.
